Laboratory results reported in patent US10597388B2, “Pyridazinone herbicides” (FMC CORPORATION, priority 2014, dated 2020).

Assays:
Format in all cases: in vivo
[1] = system: wild poinsettia (Euphorbia heterophylla); assay: Test E greenhouse herbicide test, pre- and postemergence
Procedure, shortened: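 Scores (0–100, visual, vs controls) reflect greenhouse growth of 14 to 21 d after treatment. Application was pre-emergence to silt loam or post-emergence at the 1- to 4-leaf stage.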

[2] = system: waterhemp_RES1 (ALS & Triazine resistant common waterhemp, Amaranthus rudis); assay: Test E greenhouse herbicide test, postemergence
Method: (§1) At the same time, plants from these crop and weed species and also waterhemp_RES1, (ALS & Triazine resistant common waterhemp, Amaranthus rudis), and waterhemp_RES2, (ALS & HPPD resistant common waterhemp, Amaranthus rudis) were planted in pots containing Redi-Earth® planting medium (Scotts Company, 14111 Scottslawn Road, Marysville, Ohio 43041) comprising spaghnum peat moss, vermiculite, wetting agent and starter nutrients were treated with postemergence applications of test chemicals formulated in the same manner. Plants ranged in height from 2 to 18 cm for postemergence treatments (1- to 4-leaf stage). Treated plants and controls were maintained in a greenhouse for 14 to 21 d, after which time all species were compared to controls and visually evaluated. Plant response ratings, summarized in Table E, are based on a scale of 0 to 100 where 0 is no effect and 100 is complete control. A dash (-) response means no test result.

[3] = system: waterhemp_RES2 (ALS & HPPD resistant common waterhemp, Amaranthus rudis); assay: Test E greenhouse herbicide test, postemergence
Method: as §1

[4] = system: barley, spring (spring barley, Hordeum vulgare); assay: Test D controlled growth environment herbicide test, pre- and postemergence
Procedure, shortened: (§2)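 Rating is visual, 0–100 scale (100 = complete control), made against untreated plants 14–21 d after treatment in controlled growth conditions. Postemergence sprays went onto 1- to 4-leaf plants in peat medium; preemergence sprays onto silt loam after sowing; formulation included a surfactant.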

[5] = system: Canada thistle (Cirsium arvense); assay: as above
Procedure, shortened: as §2

[6] = system: geranium, cutleaf (cutleaf geranium, Geranium dissectum); assay: as above
Procedure, shortened: as §2

[7] = 62 g ai/ha, Postemergence, scale 0 to 100 (0 no effect, 100 complete control)
[8] = 62 g ai/ha, Preemergence, scale 0 to 100 (0 no effect, 100 complete control)
[9] = 125 g ai/ha, Postemergence, scale 0 to 100 (0 no effect, 100 complete control)
[10] = 125 g ai/ha, Preemergence, scale 0 to 100 (0 no effect, 100 complete control)
[11] = 250 g ai/ha, Postemergence, scale 0 to 100 (0 no effect, 100 complete control)
[12] = Postemergence, 16 g ai/ha, visual, scale 0 no effect to 100 complete control
[13] = Postemergence, 31 g ai/ha, visual, scale 0 no effect to 100 complete control
[14] = Preemergence, 16 g ai/ha, scale 0 to 100, 0 no effect, 100 complete control
[15] = Preemergence, 31 g ai/ha, scale 0 to 100, 0 no effect, 100 complete control
[16] = Preemergence, 250 g ai/ha, visual, scale 0 no effect to 100 complete control
[17] = 16 g ai/ha, visual, scale 0 no effect to 100 complete control
[18] = 31 g ai/ha, visual, scale 0 no effect to 100 complete control
[19] = 62 g ai/ha, scale 0 to 100 (0 no effect, 100 complete control)
[20] = 125 g ai/ha, scale 0 to 100 (0 no effect, 100 complete control)
[21] = 250 g ai/ha, scale 0 to 100 (0 no effect, 100 complete control)
[22] = Postemergence, 31 g ai/ha, scale 0 to 100 (0 no effect, 100 complete control)
[23] = Postemergence, 125 g ai/ha, visual rating on scale 0 (no effect) to 100 (complete control), 14 to 21 d
[24] = Postemergence, 250 g ai/ha, scale 0 to 100 (0 no effect, 100 complete control)
[25] = Preemergence, 62 g ai/ha, scale 0 to 100 (0 no effect, 100 complete control)
[26] = Preemergence, 125 g ai/ha, scale 0 to 100 (0 no effect, 100 complete control)
[27] = Preemergence, 250 g ai/ha, scale 0 to 100 (0 no effect, 100 complete control)
[28] = postemergence, 62 g ai/ha, scale 0 to 100, 0 no effect, 100 complete control

Row | SMILES | Plant response rating, Poinsettia, Wild [1, 7] | Plant response rating, Poinsettia, Wild [1, 9] | Plant response rating, Poinsettia, Wild [1, 10] | Plant response rating, Poinsettia, Wild [1, 11] | Plant response rating, Poinsettia, Wild [1, 13] | Plant response rating, Poinsettia, Wild [1, 15] | Plant response rating, Waterhemp_RES1 [2, 18] | Plant response rating, Waterhemp_RES1 [2, 20] | Plant response rating, Waterhemp_RES1 [2, 21] | Plant response rating, Waterhemp_RES2 [3, 18] | Plant response rating, Waterhemp_RES2 [3, 20] | Plant response rating, Waterhemp_RES2 [3, 21] | Plant response rating, Barley, Spring [4, 23] | Plant response rating, Barley, Spring [4, 24] | Plant response rating (scale of 0 to 100), Barley, Spring ([4]; Preemergence, 31 g ai/ha) | Plant response rating, Barley, Spring [4, 25] | Plant response rating, Barley, Spring [4, 26] | Plant response rating, Barley, Spring [4, 28] | Barley, Spring plant response rating [4, 22] | Plant response rating, Barley, Spring [4, 27] | other results
1 | Cc1ccc2sc(C)c(-c3c(O)c(C)nn(C)c3=O)c2c1 [Compound 1, 4-(2,5-dimethylbenzo[b]thien-3-yl)-5-hydroxy-2,6-dimethyl-3(2H)-pyridazinone] | 15 | 15 | 30 | 35 | 10 | 30 | 80 | 98 | 100 | 75 | 70 | 75 | 5 | 10 | 0 | 0 | 10 | 5 |  |  | Plant response rating, Poinsettia, Wild [1, 8]: 30; Plant response rating, Poinsettia, Wild [1, 12]: 5; Plant response rating, Poinsettia, Wild [1, 14]: 20; Plant response rating, Poinsettia, Wild [1, 16]: 35; Plant response rating, Waterhemp_RES1 [2, 17]: 75; Plant response rating, Waterhemp_RES1 [2, 19]: 90; Plant response rating, Waterhemp_RES2 [3, 17]: 0; Plant response rating, Waterhemp_RES2 [3, 19]: 70; Plant response rating, Barley, Spring [4, 22]: 0; Barley, Spring plant response rating [4, 27]: 15
2 | CC(=O)Oc1c(C)nn(C)c(=O)c1-c1c(C)sc2ccc(C)cc12 [Compound 25] | 30 | 35 |  | 60 | 35 |  | 75 | 85 | 95 | 70 | 70 | 75 | 0 | 10 | 0 | 0 | 0 | 0 |  |  | Plant response rating, Waterhemp_RES1 [2, 19]: 80; Plant response rating, Waterhemp_RES2 [3, 19]: 60; Plant response rating, Barley, Spring [4, 22]: 0; Barley, Spring plant response rating [4, 27]: 0
3 | CCC(=O)Oc1c(C)nn(C)c(=O)c1-c1c(C)sc2c(C)cc(C)cc12 [Compound 28] |  | 50 |  | 40 |  |  |  | 60 | 80 |  | 50 | 50 | 5 | 10 | 0 | 0 | 0 | 5 |  |  | Plant response rating, Barley, Spring [4, 22]: 5; Barley, Spring plant response rating [4, 27]: 0
4 | COC(=O)Oc1c(C)nn(C)c(=O)c1-c1c(C)sc2c(C)cc(C)cc12 [Compound 81] | 40 | 40 | 30 | 50 | 30 | 0 | 50 | 60 | 65 | 10 | 50 | 50 | 0 | 10 | 0 | 0 | 0 | 0 | 0 | 5 | Plant response rating, Poinsettia, Wild [1, 8]: 5; Plant response rating, Poinsettia, Wild [1, 16]: 60
5 | CCOC(=O)Oc1c(C)nn(C)c(=O)c1-c1c(C)sc2ccc(C)cc12 [Compound 82] | 30 | 40 | 0 | 50 | 40 | 0 | 60 | 85 | 95 | 50 | 60 | 60 | 0 | 5 | 0 | 0 | 0 | 5 | 0 | 10 | Plant response rating, Poinsettia, Wild [1, 8]: 0; Plant response rating, Poinsettia, Wild [1, 16]: 20
6 | CCC(=O)Oc1c(C)nn(C)c(=O)c1-c1c(C)sc2ccc(Cl)cc12 [Compound 109] | 45 | 50 | 30 |  | 25 | 10 | 70 | 90 |  | 50 | 60 |  | 10 | 25 | 0 | 0 | 5 | 5 | 0 | 5 | Plant response rating, Poinsettia, Wild [1, 12]: 0; Plant response rating, Poinsettia, Wild [1, 14]: 10; Plant response rating, Poinsettia, Wild ([1]; Preemergence, scale 0 to 100, 0 no effect, 100 complete control): 25; Plant response rating, Waterhemp_RES1 [2, 17]: 60
7 | CC(=O)Oc1c(Br)nn(C)c(=O)c1-c1c(C)ccc2ccccc12 [Compound 129] |  |  |  |  |  |  |  |  |  |  |  |  | 30 | 30 | 0 | 0 | 0 | 25 | 20 | 20 | Canada Thistle plant response rating [5, 22]: 100; Plant response rating, Canada Thistle [5, 23]: 100; Plant response rating, Canada Thistle [5, 24]: 100; Plant response rating (scale of 0 to 100), Canada Thistle ([5]; Preemergence, 31 g ai/ha): 80; Plant response rating, Canada Thistle [5, 25]: 100; Plant response rating, Canada Thistle [5, 26]: 100; Plant response rating, Canada Thistle [5, 27]: 100; Plant response rating, Canada Thistle [5, 28]: 100; Geranium, Cutleaf plant response rating [6, 22]: 60; Plant response rating, Geranium, Cutleaf [6, 23]: 75; Plant response rating, Geranium, Cutleaf [6, 24]: 75; Plant response rating (scale of 0 to 100), Geranium, Cutleaf ([6]; Preemergence, 31 g ai/ha): 0; Plant response rating (scale of 0 to 100), Geranium, Cutleaf ([6]; Preemergence, 62 g ai/ha): 0; Plant response rating, Geranium, Cutleaf [6, 26]: 70; Plant response rating, Geranium, Cutleaf [6, 27]: 95; Plant response rating, Geranium, Cutleaf [6, 28]: 70
